From patent US20260022142A1, “MACROCYCLIC IMMUNOMODULATORS” (Bristol-Myers Squibb Company, priority 2022, published 2026)
Bridge positions count the residues as written; N and C are the ends. Square brackets hold non-standard residues; d marks the D form. Peptide text beside a SMILES is read from it. * marks the point of attachment. Bip = N[C@@H](Cc1ccc(-c2ccccc2)cc1)C(=O)O; X13 = N[C@@H](CN*)C(=O)NCCCCCCCCCCC(=O)O; Phe(3-Me) = Cc1cccc(C[C@H](N)C(=O)O)c1; Val(3-OH) = CC(C)(O)[C@H](N)C(=O)O; hArg = N=C(N)NCCCC[C@H](N)C(=O)O; 4Pal = N[C@@H](Cc1ccncc1)C(=O)O; Cha = N[C@@H](CC1CCCCC1)C(=O)O; Cit = NC(=O)NCCC[C@H](N)C(=O)O; Cba = N[C@@H](CC1CCC1)C(=O)O; 12Ado = NCCCCCCCCCCCC(=O)O; Carboxymethyl = O=C(O)C*; Orn = NCCC[C@H](N)C(=O)O; Aun = NCCCCCCCCCCC(=O)O; Dab = NCC[C@H](N)C(=O)O; Dap = NC[C@H](N)C(=O)O; AEEA = NCCOCCOCC(=O)O

Molecular target: T1, PD-1/PD-L1 interaction (PE-labeled human PD-L1-Ig binding to Jurkat cell line over-expressing human PD-1) (Homo sapiens, UniProt Q15116)
T1 construct: expressed in transfected cells; host or cells: Jurkat
T1 sequence (Q15116 25-288): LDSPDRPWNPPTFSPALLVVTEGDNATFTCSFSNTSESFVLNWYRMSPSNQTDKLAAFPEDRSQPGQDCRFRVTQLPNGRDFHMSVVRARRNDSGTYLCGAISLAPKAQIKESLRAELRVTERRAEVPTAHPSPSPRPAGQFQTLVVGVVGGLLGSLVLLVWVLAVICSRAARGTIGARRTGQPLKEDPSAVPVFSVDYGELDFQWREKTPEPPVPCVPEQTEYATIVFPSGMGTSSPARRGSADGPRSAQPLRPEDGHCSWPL
Experiment: Jurkat-PD-1 Cell Binding High-Content Screening Assay (CBA)
Format: cell-based
Details: Jurkat cell line over-expressing human PD-1; PE-labeled PD-L1-Ig 20 nM final; read-out: Jurkat hPD1-PDL1 IC50
How it was run: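 Jurkat-hPD-1 cells, DMEM/10% FCS; cpd 2 h 37° C; PE-PD-L1-Ig 20 nM final, 1 h; 4% PFA fix + Hoechst 33342, 3× dPBS wash; high-content imaging read-out.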

Row | IC50 [nM] | SMILES
1 | 14.8 | CC(C)C[C@H]1NC(=O)[C@H](CCCN)NC(=O)[C@H](C(C)C)NC(=O)[C@H](Cc2ccc(-c3ccccc3)cc2)NC(=O)[C@H](C(C)C)NC(=O)[C@H](Cc2c[nH]c3ccccc23)NC(=O)[C@H](CC(=O)O)NC(=O)[C@H](Cc2ccc(OCC(=O)O)cc2)NC(=O)[C@H](CCCCNC(=N)N)NC(=O)CSC[C@@H](C(=O)N[C@@H](CCCN)C(=O)NCCOCCOCC(=O)N[C@@H](CCCN)C(=O)NCCCCCCCCCCC(=O)O)NC(=O)[C@H](CO)NC(=O)[C@H](C(C)C)NC(=O)[C@H](CC2CCCCC2)NC(=O)[C@H](CC(N)=O)NC1=O [Compound 3178] ({CH2CO}-[hArg]Y(Carboxymethyl)DWV[Bip]V[Orn][dL]N[Cha]VSC[Orn][AEEA][Orn][Aun]-OH; thioether N-14)
2 | 73.9 | Cc1cccc(C[C@@H]2NC(=O)[C@H](CC(=O)O)NC(=O)[C@H](Cc3ccc(OCC(=O)O)cc3)NC(=O)[C@H](CCN)NC(=O)CSC[C@@H](C(=O)N[C@@H](CO)C(=O)NCCCCCCCCCCC(=O)O)NC(=O)[C@H](CO)NC(=O)[C@H](C(C)(C)O)NC(=O)[C@H](CC3CCCCC3)NC(=O)[C@H](Cc3cnc[nH]3)NC(=O)[C@@H](CC(C)C)NC(=O)[C@H](CCCN)NC(=O)[C@H](Cc3ccc(OCC(=O)O)cc3)NC(=O)[C@H](Cc3ccc(-c4ccccc4)cc3)NC(=O)[C@H](Cc3ccc(OCC(=O)O)cc3)NC2=O)c1 [Compound 3724] ({CH2CO}-[Dab]Y(Carboxymethyl)D[Phe(3-Me)]Y(Carboxymethyl)[Bip]Y(Carboxymethyl)[Orn][dL]H[Cha][Val(3-OH)]SCS[Aun]-OH; thioether N-14)
3 | 10 | CC(C)C[C@H]1NC(=O)[C@H](CCCN)NC(=O)[C@H](C(C)C)NC(=O)[C@H](Cc2ccc(-c3ccccc3)cc2)NC(=O)[C@H](C(C)C)NC(=O)[C@H](Cc2c[nH]c3ccccc23)NC(=O)[C@H](CC(=O)O)NC(=O)[C@H](Cc2ccc(OCC(=O)O)cc2)NC(=O)[C@H](Cc2ccc(OCC(=O)O)cc2)NC(=O)CSC[C@@H](C(=O)NCCOCCOCC(=O)NCCCCCCCCCCC(=O)O)NC(=O)[C@H](CCCNC(=N)N)NC(=O)[C@H](C(C)C)NC(=O)[C@H](CC2CCCCC2)NC(=O)[C@H](CCN)NC1=O [Compound 2564] ({CH2CO}-Y(Carboxymethyl)Y(Carboxymethyl)DWV[Bip]V[Orn][dL][Dab][Cha]VRC[AEEA][Aun]-OH; thioether N-14)
4 | 37.2 | CC(=O)NCCCC[C@@H]1NC(=O)[C@H](Cc2ccc(-c3ccccc3)cc2)NC(=O)[C@H](Cc2ccc(O)cc2)NC(=O)[C@H](Cc2cccc(C)c2)NC(=O)[C@H](CC(=O)O)NC(=O)[C@H](Cc2ccc(OCC(=O)O)cc2)NC(=O)[C@H](CCN)NC(=O)CSC[C@@H](C(=O)N[C@@H](CCN)C(=O)N[C@@H](CO)C(=O)NCCCCCCCCCCCC(=O)O)NC(=O)[C@H](CCCN)NC(=O)[C@H](C(C)(C)O)NC(=O)[C@H](CC2CCCCC2)NC(=O)[C@H](CCN)NC(=O)[C@@H](CC(C)C)NC(=O)[C@H](CCCN)NC1=O [Compound 3620] ({CH2CO}-[Dab]Y(Carboxymethyl)D[Phe(3-Me)]Y[Bip]K(Ac)[Orn][dL][Dab][Cha][Val(3-OH)][Orn]C[Dab]S[12Ado]-OH; thioether N-14)
5 | 31.3 | Cc1cccc(C[C@@H]2NC(=O)[C@H](CC(=O)O)NC(=O)[C@H](Cc3ccc(OCC(=O)O)cc3)NC(=O)[C@H](Cc3ccc(OCC(=O)O)cc3)NC(=O)CSC[C@@H](C(=O)NCC(=O)N[C@@H](CCN)C(=O)NCCCCCCCCCCC(=O)O)NC(=O)[C@H](CO)NC(=O)[C@H](C(C)C)NC(=O)[C@H](CC3CCCCC3)NC(=O)[C@H](CCN)NC(=O)[C@@H](CC(C)C)NC(=O)[C@H](CCCN)NC(=O)[C@H](C(C)C)NC(=O)[C@H](Cc3ccc(-c4ccccc4)cc3)NC(=O)[C@H](CC(C)C)NC2=O)c1 [Compound 1054] ({CH2CO}-Y(Carboxymethyl)Y(Carboxymethyl)D[Phe(3-Me)]L[Bip]V[Orn][dL][Dab][Cha]VSCG[Dab][Aun]-OH; thioether N-14)
6 | 50.1 | Cc1cccc(C[C@@H]2NC(=O)[C@H](CC(=O)O)NC(=O)[C@H](Cc3ccc(OCC(=O)O)cc3)NC(=O)[C@H](CN)NC(=O)CSC[C@@H](C(=O)N[C@@H](CCN)C(=O)NCCCCCCCCCCC(=O)O)NC(=O)[C@H](CCCN)NC(=O)[C@H](Cc3ccc(O)cc3)NC(=O)[C@H](CC3CCCCC3)NC(=O)[C@H](CCN)NC(=O)[C@@H](CC(C)C)NC(=O)[C@H](CCCN)NC(=O)[C@H](Cc3ccc(O)cc3)NC(=O)[C@H](Cc3ccc(-c4ccccc4)cc3)NC(=O)[C@H](Cc3ccc(O)cc3)NC2=O)c1 [Compound 2511] ({CH2CO}-[Dap]Y(Carboxymethyl)D[Phe(3-Me)]Y[Bip]Y[Orn][dL][Dab][Cha]Y[Orn]C[Dab][Aun]-OH; thioether N-14)
7 | 15.5 | CC(C)C[C@H]1NC(=O)[C@H](CCCN)NC(=O)[C@H](Cc2ccc(O)cc2)NC(=O)[C@H](Cc2ccc(-c3ccccc3)cc2)NC(=O)[C@H](Cc2ccc(O)cc2)NC(=O)[C@H](Cc2c[nH]c3ccccc23)NC(=O)[C@H](CC(=O)O)NC(=O)[C@H](Cc2ccc(OCC(=O)O)cc2)NC(=O)[C@H]([C@@H](C)O)NC(=O)CSC[C@@H](C(=O)N[C@@H](CCN)C(=O)NCCCCCCCCCCC(=O)O)NC(=O)[C@H](CCCNC(N)=O)NC(=O)[C@H](C(C)C)NC(=O)[C@H](CC2CCCCC2)NC(=O)[C@H](CCN)NC1=O [Compound 2730] ({CH2CO}-TY(Carboxymethyl)DWY[Bip]Y[Orn][dL][Dab][Cha]V[Cit]C[Dab][Aun]-OH; thioether N-14)
8 | 62.8 | Cc1cccc(C[C@@H]2NC(=O)[C@H](CC(=O)O)NC(=O)[C@H](Cc3ccc(O)cc3)NC(=O)[C@H](Cc3ccncc3)NC(=O)CSC[C@@H](C(=O)N[C@@H](CCN)C(=O)NCCCCCCCCCCC(=O)O)NC(=O)[C@H](CCCN)NC(=O)[C@H](C(C)C)NC(=O)[C@H](CC3CCCCC3)NC(=O)[C@H](CCN)NC(=O)[C@@H](CC(C)C)NC(=O)[C@H](CCCN)NC(=O)[C@H](Cc3ccc(O)cc3)NC(=O)[C@H](Cc3ccc(-c4ccccc4)cc3)NC(=O)[C@H](C(C)C)NC2=O)c1 [Compound 2708] ({CH2CO}-[4Pal]YD[Phe(3-Me)]V[Bip]Y[Orn][dL][Dab][Cha]V[Orn]C[Dab][Aun]-OH; thioether N-14)
9 | 28 | Cc1cccc(C[C@@H]2NC(=O)[C@H](CC(=O)O)NC(=O)[C@H](Cc3ccncc3)NC(=O)[C@H](Cc3ccc(OCC(=O)O)cc3)NC(=O)CSC[C@@H](C(=O)NCCOCCOCC(=O)N[C@@H](CCCN)C(=O)NCCCCCCCCCCC(=O)O)NC(=O)[C@H]([C@@H](C)O)NC(=O)[C@H](C(C)C)NC(=O)[C@H](CC3CCCCC3)NC(=O)[C@H](CCN)NC(=O)[C@@H](CC(C)C)NC(=O)[C@H](CCCN)NC(=O)[C@H](C(C)C)NC(=O)[C@H](Cc3ccc(-c4ccccc4)cc3)NC(=O)[C@H](C(C)C)NC2=O)c1 [Compound 1171] ({CH2CO}-Y(Carboxymethyl)[4Pal]D[Phe(3-Me)]V[Bip]V[Orn][dL][Dab][Cha]VTC[AEEA][Orn][Aun]-OH; thioether N-14)
10 | 15.7 | CC(C)C[C@H]1NC(=O)[C@H](CCCN)NC(=O)[C@H](C(C)C)NC(=O)[C@H](Cc2ccc(-c3ccccc3)cc2)NC(=O)[C@H](C(C)C)NC(=O)[C@H](Cc2c[nH]c3ccccc23)NC(=O)[C@H](CC(=O)O)NC(=O)[C@H](Cc2ccc(OCC(=O)O)cc2)NC(=O)[C@H](CN)NC(=O)CSC[C@@H](C(=O)NCCOCCOCC(=O)N[C@@H](CCN)C(=O)NCCCCCCCCCCC(=O)O)NC(=O)[C@H]([C@@H](C)O)NC(=O)[C@H](C(C)C)NC(=O)[C@H](CC2CCCCC2)NC(=O)[C@H](Cc2cnc[nH]2)NC1=O [Compound 1096] ({CH2CO}-[Dap]Y(Carboxymethyl)DWV[Bip]V[Orn][dL]H[Cha]VTC[AEEA][Dab][Aun]-OH; thioether N-14)
11 | 19.6 | Cc1cccc(C[C@@H]2NC(=O)[C@H](CC(=O)O)NC(=O)[C@H](Cc3ccc(OCC(=O)O)cc3)NC(=O)[C@H](CCCNC(=N)N)NC(=O)CSC[C@@H](C(=O)N[C@@H](CCCN)C(=O)NCCCCCCCCCCC(=O)O)NC(=O)[C@H](CCC(N)=O)NC(=O)[C@H](C(C)C)NC(=O)[C@H](CC3CCCCC3)NC(=O)[C@H](CCN)NC(=O)[C@@H](CC(C)C)NC(=O)[C@H](CCN)NC(=O)[C@H](Cc3ccc(OCC(=O)O)cc3)NC(=O)[C@H](Cc3ccc(-c4ccccc4)cc3)NC(=O)[C@H](Cc3ccc(OCC(=O)O)cc3)NC2=O)c1 [Compound 2855] ({CH2CO}-RY(Carboxymethyl)D[Phe(3-Me)]Y(Carboxymethyl)[Bip]Y(Carboxymethyl)[Dab][dL][Dab][Cha]VQC[Orn][Aun]-OH; thioether N-14)
12 | 10.8 | Cc1cccc(C[C@@H]2NC(=O)[C@H](CC(=O)O)NC(=O)[C@H](Cc3ccc(OCC(=O)O)cc3)NC(=O)[C@H](CN)NC(=O)CSC[C@@H](C(=O)N[C@@H](CCN)C(=O)NCCCCCCCCCCC(=O)O)NC(=O)[C@H](CO)NC(=O)[C@H](C(C)(C)O)NC(=O)[C@H](CC3CCC3)NC(=O)[C@H](CCN)NC(=O)[C@@H](CC(C)C)NC(=O)[C@H](CCCN)NC(=O)[C@H](Cc3ccc(OCC(=O)O)cc3)NC(=O)[C@H](Cc3ccc(-c4ccccc4)cc3)NC(=O)[C@H](Cc3ccc(OCC(=O)O)cc3)NC2=O)c1 [Compound 2175] ({CH2CO}-[Dap]Y(Carboxymethyl)D[Phe(3-Me)]Y(Carboxymethyl)[Bip]Y(Carboxymethyl)[Orn][dL][Dab][Cba][Val(3-OH)]SC[Dab][Aun]-OH; thioether N-14)
13 | 16.8 | Cc1cccc(C[C@@H]2NC(=O)[C@H](CC(=O)O)NC(=O)[C@H](Cc3ccc(OCC(=O)O)cc3)NC(=O)[C@H](CN)NC(=O)CSC[C@@H](C(=O)NC[C@H](N)C(=O)NCCCCCCCCCCC(=O)O)NC(=O)[C@H]([C@@H](C)O)NC(=O)[C@H](C(C)C)NC(=O)[C@H](CC3CCCCC3)NC(=O)[C@H](CCN)NC(=O)[C@@H](CC(C)C)NC(=O)[C@H](CCCN)NC(=O)[C@H](CCCNC(N)=O)NC(=O)[C@H](Cc3ccc(-c4ccccc4)cc3)NC(=O)[C@H](C(C)C)NC2=O)c1 [Compound 2621] ({CH2CO}-[Dap]Y(Carboxymethyl)D[Phe(3-Me)]V[Bip][Cit][Orn][dL][Dab][Cha]VTC-X13; thioether N-14)
